Source: PubChem BioAssay (NCI)
Several values for one entry are separate records, joined by “and”; a condition that tells them apart may be missing. Equal values may be shown once.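 Five compound concentrations were applied to cells in 96-well plates for 48 hours; endpoints were derived by simple linear interpolation of the resulting dose-response curve. GI50 is the concentration that inhibits growth by half. TGI: total growth inhibition.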

Columns and labels:
Experiment in all cases: NCI tumour cell line growth inhibition, 48 h
786-0 renal = test system: 786-0 renal
T-47D breast = test system: T-47D breast
MCF7 breast = test system: MCF7 breast
A549 NSCLC = test system: A549 NSCLC
NCI-H460 lung = test system: NCI-H460 lung
U251 CNS = test system: U251 CNS
SNB-75 CNS = test system: SNB-75 CNS

Structure (SMILES)	TGI (786-0 renal)	TGI (T-47D breast)	TGI (MCF7 breast)	TGI (A549 NSCLC)	TGI (NCI-H460 lung)	TGI (U251 CNS)	TGI (SNB-75 CNS)	GI50 (786-0 renal)	GI50 (T-47D breast)	GI50 (MCF7 breast)	GI50 (A549 NSCLC)	GI50 (SNB-75 CNS)	GI50 (NCI-H460 lung)	GI50 (U251 CNS)
Fc1cccc(Cl)c1/C=N\N=C1c2ccccc2-c2ccccc21	> 100 µM	> 100 µM	> 100 µM	> 100 µM	> 100 µM	> 100 µM								
Nc1ccc(S(=O)(=O)NCc2nccs2)cc1	77.3 µM	71.8 µM	61.4 µM	94.3 µM	> 100 µM	47.5 µM	58.8 µM							
Oc1ccccc1-c1nc2c3ccccc3c3ccccc3c2[nH]1	13.6 µM	12.8 µM	13.4 µM	17.9 µM	12.1 µM	22.2 µM	15.2 µM	4.67 µM	1.89 µM	1.99 µM	6.08 µM	2.53 µM	3.39 µM	10.5 µM
CC1CCN(CC(=O)N2c3ccccc3Sc3cc4ccccc4cc32)CC1	> 100 µM	> 100 µM	> 100 µM	> 100 µM	> 100 µM	> 100 µM	> 100 µM							
Cc1cc(N/N=C/c2nc(-c3ccc(Cl)cc3)oc2C)c2cc(Cl)ccc2n1	2.99 µM	3.36 µM	2.97 µM	3.6 µM		3.37 µM	3.68 µM	1.55 µM	1.69 µM	1.35 µM	1.76 µM	1.68 µM		1.78 µM
N#C[C@@H]1C(n2ccc(N)nc2=O)O[C@H](CO)[C@H]1O (stereo partly specified)	> 100 µM	> 100 µM	> 100 µM	> 100 µM	> 100 µM	> 100 µM	> 100 µM	13.2 µM	> 100 µM	0.993 µM	6.16 µM	> 100 µM	0.693 µM	42.7 µM
COc1cc(Cn2c(-c3nonc3N)nc3ccccc32)ccc1C	23.6 µM	> 100 µM	> 100 µM	> 100 µM	> 100 µM	15.6 µM	1.13 µM	0.55 µM	0.574 µM	0.348 µM	0.625 µM	0.248 µM	0.377 µM	0.501 µM
CC(C)[C@H]1C(=O)N[C@@H](CCCN=C(N)N)C(=O)NCC(=O)N[C@@H](CC(=O)O)C(=O)N[C@H](Cc2ccccc2)C(=O)N1C	> 100 µM	> 29.4 µM	3.32 µM	> 100 µM	> 100 µM	> 100 µM	0.279 µM	5.54 µM	2.87 µM	1.4 µM	31.8 µM	0.12 µM	31.6 µM	> 23.2 µM
Cn1c(=O)c2c(ncn2CN2CCN(Cn3cnc4c3c(=O)n(C)c(=O)n4C)CC2)n(C)c1=O	> 100 µM	89.1 µM	35.7 µM	> 100 µM	57.8 µM	> 100 µM	> 100 µM							
COC1CC(OC(=O)c2ccccc2)C(OC(=O)c2ccccc2)C(C)O1 (stereo unspecified)	> 100 µM	> 100 µM	> 100 µM	> 100 µM	> 100 µM	> 100 µM								
CCOc1c(Cl)cc(CNC(C)C(O)c2ccccc2)cc1OC (stereo unspecified)	38.9 µM	46.5 µM	45.2 µM	> 100 µM	35.9 µM	46.1 µM	46.9 µM	16.1 µM	16.5 µM	17.8 µM	43.9 µM	12.7 µM	18.3 µM	19.5 µM
NC(=O)c1ccc(C2C3=C(CCCC3=O)OC3=C2C(=O)c2ccccc2C3=O)cc1 (stereo unspecified)	2.33 µM	0.968 µM	0.824 µM	4.66 µM	2.05 µM	1.22 µM	1.22 µM	1.04 µM	0.272 µM	0.233 µM	2.28 µM	0.277 µM	0.458 µM	0.358 µM
O=C1CC(=O)OC(c2ccc([N+](=O)[O-])cc2)O1	3.36 µM	4.1 µM	3.84 µM	7.78 µM	5.9 µM	3.11 µM	3.12 µM	1.81 µM	1.93 µM	1.59 µM	2.6 µM	1.44 µM	2.4 µM	1.61 µM
CC(C)(C)NC(=O)[C@H]1C[C@H]2CCCC[C@H]2CN1C[C@@H](O)[C@H](Cc1ccccc1)NC(=O)[C@H](CC(N)=O)NC(=O)c1ccc2ccccc2n1	31.1 µM	40.9 µM	43.5 µM	31 µM	> 51.4 µM	24.4 µM	28.4 µM	13.8 µM	13.8 µM	19.1 µM	13.2 µM	12.5 µM	12.7 µM	11.9 µM
C[C@]12CC[C@@H]3c4ccc(O)cc4C(O)C[C@H]3[C@@H]1CCC2=O (stereo partly specified)	> 100 µM	> 100 µM	> 100 µM	> 100 µM	> 100 µM	> 100 µM	> 100 µM	> 100 µM	> 100 µM	> 100 µM	> 100 µM	26.9 µM	> 100 µM	> 100 µM
Cc1cc(=O)oc2cc(O)c(CN(C)CC(=O)O)cc12	> 100 µM	> 100 µM	> 100 µM	> 100 µM	> 100 µM	> 100 µM	> 100 µM							
O=C(O)CSc1ncccc1[N+](=O)[O-]	> 100 µM	> 100 µM	> 100 µM	> 100 µM	> 100 µM	> 100 µM	> 100 µM							
CSc1ccc(/C=C2\C=C(CC(=O)NCc3ccc(C(=O)c4ccccc4)cc3)c3cc(F)ccc32)cc1	2.66 µM	44 µM	12.2 µM	4.8 µM	4.39 µM	2.33 µM	6.25 µM	0.125 µM	1.99 µM		0.137 µM	0.0433 µM	0.0377 µM	0.0379 µM
CCN(CC)CCNc1n[n+]([O-])c2ccccc2[n+]1[O-]	64.5 µM and 21 µM	36.4 µM and 27.5 µM	37.6 µM and 26.2 µM	22.3 µM and 29.6 µM	38.4 µM and 12.6 µM	> 52.4 µM and 36.9 µM	45.3 µM and 55.4 µM			5.43 µM and 2.55 µM	5.07 µM and 10.2 µM	4.07 µM and 14.8 µM	3.94 µM and 1.54 µM	
CC(C)Oc1cc(O)c2c(c1)OCC=C2CCC(=O)O	> 100 µM	> 100 µM	40.2 µM	> 100 µM	> 100 µM	> 100 µM	> 100 µM							
